Assay results as given in ChEMBL document CHEMBL1201862, “PubChem BioAssay data set” (2004).
Calls of active or inactive are those of the source.

Assays:
[1] = target: Ubiquitin carboxyl-terminal hydrolase BAP1 (Homo sapiens, UniProt Q92560); assay: inhibition of BAP1 ubiquitin hydrolase activity – biochemical, dose response (AID 714); type: functional
[2] = target: T1, RNA-binding protein pos-1 (Caenorhabditis elegans, UniProt G5EF15); assay: disruptors of C. elegans POS-1 RNA interaction – biochemical, fluorescence polarization, dose response (AID 1964);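 further: purified POS-1 fused to maltose binding protein made in E. coli; potency of compounds blocking POS-1 binding to fluorescent RNA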
T1 sequence (G5EF15 whole entry): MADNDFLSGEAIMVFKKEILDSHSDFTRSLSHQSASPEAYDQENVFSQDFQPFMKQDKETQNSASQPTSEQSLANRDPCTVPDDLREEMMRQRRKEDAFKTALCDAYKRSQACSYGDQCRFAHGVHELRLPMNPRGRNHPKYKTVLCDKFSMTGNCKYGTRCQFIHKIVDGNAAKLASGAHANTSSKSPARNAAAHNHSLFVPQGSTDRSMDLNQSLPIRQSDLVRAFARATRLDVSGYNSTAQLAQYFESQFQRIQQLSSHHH

[3] = target: T2, Zinc finger protein mex-5 (Caenorhabditis elegans, UniProt Q9XUB2); assay: potency of MEX-5 RNA-binding blockers – biochemical, C. elegans, fluorescence polarization, dose response (AID 1960)
T2 sequence (Q9XUB2 whole entry): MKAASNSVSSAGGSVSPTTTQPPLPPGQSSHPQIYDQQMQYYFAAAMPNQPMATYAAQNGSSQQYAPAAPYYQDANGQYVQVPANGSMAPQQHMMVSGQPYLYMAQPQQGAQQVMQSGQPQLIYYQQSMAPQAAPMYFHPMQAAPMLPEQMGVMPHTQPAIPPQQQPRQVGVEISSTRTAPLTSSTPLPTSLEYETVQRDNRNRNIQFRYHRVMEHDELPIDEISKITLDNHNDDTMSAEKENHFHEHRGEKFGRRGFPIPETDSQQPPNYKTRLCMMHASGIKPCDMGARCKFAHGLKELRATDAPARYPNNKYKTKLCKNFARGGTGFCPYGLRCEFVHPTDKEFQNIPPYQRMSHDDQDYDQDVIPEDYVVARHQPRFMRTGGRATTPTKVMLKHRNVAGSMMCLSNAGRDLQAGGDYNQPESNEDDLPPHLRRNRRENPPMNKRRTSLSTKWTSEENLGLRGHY

Estrogen receptor beta [4] = target: T3, Estrogen receptor beta (Homo sapiens, UniProt Q92731); assay: blockers of SRC-3 recruitment to ERβ – biochemical, ELISA, streptavidin-HRP readout, orthogonal assay, confirmation (AID 1060)
T3 sequence (Q92731 whole entry): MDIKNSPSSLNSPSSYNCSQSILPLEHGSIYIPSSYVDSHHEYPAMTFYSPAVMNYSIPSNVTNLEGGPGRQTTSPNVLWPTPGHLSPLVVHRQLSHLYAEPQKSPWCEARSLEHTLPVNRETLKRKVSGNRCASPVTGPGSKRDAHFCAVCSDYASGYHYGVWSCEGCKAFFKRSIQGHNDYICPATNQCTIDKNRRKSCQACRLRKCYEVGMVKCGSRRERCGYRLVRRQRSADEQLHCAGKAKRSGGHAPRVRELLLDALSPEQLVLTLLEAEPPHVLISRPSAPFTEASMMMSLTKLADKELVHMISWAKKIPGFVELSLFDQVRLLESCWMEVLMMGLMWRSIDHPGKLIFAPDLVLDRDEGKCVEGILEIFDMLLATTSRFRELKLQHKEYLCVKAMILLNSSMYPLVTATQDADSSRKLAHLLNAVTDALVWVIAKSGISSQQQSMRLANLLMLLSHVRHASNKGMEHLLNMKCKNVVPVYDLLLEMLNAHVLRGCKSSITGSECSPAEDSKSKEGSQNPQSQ

[5] = target: Luciferin 4-monooxygenase (Photinus pyralis, UniProt P08659); assay: inhibition of purified Photinus pyralis luciferase – biochemical, luminescence, dose response (AID 1891)
Chain of Luciferin 4-monooxygenase (P08659 whole entry): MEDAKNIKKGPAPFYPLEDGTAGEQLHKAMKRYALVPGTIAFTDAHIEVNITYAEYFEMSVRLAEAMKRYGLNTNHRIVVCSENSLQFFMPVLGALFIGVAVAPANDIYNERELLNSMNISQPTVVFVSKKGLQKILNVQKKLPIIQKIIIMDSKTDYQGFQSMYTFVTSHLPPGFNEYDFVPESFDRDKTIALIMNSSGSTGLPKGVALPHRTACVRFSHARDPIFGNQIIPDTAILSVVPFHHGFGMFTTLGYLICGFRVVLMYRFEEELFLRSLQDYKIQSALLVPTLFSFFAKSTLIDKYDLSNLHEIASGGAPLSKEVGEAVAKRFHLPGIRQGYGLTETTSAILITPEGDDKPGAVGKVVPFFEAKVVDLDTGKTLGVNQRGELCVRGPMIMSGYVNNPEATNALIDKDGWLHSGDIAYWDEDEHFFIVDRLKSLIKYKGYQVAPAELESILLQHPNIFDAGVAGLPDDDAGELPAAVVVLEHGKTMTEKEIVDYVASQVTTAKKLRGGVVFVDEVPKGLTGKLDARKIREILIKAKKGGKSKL

Estrogen receptor beta [6] = target: T3, Estrogen receptor beta
[7] = target: T4, Carboxy-terminal domain RNA polymerase II polypeptide A small phosphatase 1 (Homo sapiens, UniProt Q9GZU7); assay: CTDSP1 inhibitors, concentration-response, biochemical, absorbance readout, ultra-high-throughput screen actives (AID 540297); type: functional
T4 sequence (Q9GZU7 whole entry): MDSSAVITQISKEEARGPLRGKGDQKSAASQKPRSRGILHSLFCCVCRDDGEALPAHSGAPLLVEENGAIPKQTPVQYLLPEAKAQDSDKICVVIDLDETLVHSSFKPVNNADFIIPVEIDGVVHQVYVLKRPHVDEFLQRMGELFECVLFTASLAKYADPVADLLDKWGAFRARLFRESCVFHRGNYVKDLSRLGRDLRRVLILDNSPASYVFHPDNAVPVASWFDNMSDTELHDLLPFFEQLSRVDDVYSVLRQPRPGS

[8] = Luminescence Cell-Based Dose Confirmation HTS to Identify Inhibitors of Platelet Dense Granule Release. [Related pubchem assays: 1663 (Primary HTS), 1678 (Summary of Project)]; type: functional
Estrogen receptor = target: T5, Estrogen receptor (Homo sapiens, UniProt P03372);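 further: potency for inhibiting coactivator peptide recruitment to the receptor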
T5 sequence (P03372 whole entry): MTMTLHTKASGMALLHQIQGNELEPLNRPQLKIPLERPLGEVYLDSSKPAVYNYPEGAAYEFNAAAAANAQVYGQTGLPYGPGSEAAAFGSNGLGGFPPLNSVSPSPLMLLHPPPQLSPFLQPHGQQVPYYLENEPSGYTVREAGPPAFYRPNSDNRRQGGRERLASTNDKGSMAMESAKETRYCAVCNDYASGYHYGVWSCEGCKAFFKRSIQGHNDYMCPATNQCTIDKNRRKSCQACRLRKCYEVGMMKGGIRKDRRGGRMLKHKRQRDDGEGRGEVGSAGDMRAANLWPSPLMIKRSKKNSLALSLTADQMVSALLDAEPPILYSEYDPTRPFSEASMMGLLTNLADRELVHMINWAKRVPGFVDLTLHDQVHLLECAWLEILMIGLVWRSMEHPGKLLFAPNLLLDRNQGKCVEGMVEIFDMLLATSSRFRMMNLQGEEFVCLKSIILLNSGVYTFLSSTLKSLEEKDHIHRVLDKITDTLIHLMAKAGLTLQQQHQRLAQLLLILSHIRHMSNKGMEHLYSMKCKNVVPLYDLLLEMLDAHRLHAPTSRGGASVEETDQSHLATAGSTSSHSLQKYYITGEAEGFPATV

[9] = target: T6, Tyrosine-protein phosphatase non-receptor type 7 (Homo sapiens, UniProt P35236); assay: HePTP tyrosine phosphatase activity blockers – biochemical, absorbance, leukemia target, primary screen (AID 521); type: functional
T6 sequence (P35236 whole entry): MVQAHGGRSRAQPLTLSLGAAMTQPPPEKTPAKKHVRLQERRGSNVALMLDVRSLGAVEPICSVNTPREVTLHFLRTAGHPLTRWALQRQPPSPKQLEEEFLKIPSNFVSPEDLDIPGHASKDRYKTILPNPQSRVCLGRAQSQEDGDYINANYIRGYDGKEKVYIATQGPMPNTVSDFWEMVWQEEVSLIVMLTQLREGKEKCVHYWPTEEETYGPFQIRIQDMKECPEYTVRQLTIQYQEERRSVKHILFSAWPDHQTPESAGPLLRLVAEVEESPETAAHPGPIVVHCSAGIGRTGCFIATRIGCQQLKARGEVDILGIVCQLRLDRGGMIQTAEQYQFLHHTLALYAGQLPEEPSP

[10] = target: T7, Calpain-2 catalytic subunit (Sus scrofa, UniProt P43367); assay: m-calpain protease blockers, concentration series – biochemical, fluorogenic peptide substrate, dose response (AID 1420); type: functional
T7 sequence (P43367 whole entry): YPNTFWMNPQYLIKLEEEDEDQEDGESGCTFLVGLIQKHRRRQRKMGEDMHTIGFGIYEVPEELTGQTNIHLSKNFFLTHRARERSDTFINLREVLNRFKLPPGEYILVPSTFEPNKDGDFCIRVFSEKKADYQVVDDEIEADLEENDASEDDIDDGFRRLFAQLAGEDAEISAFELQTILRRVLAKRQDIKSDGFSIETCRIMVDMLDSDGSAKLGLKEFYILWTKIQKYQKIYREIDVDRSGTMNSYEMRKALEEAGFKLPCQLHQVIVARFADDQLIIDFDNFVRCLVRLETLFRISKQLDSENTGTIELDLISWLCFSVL

[11] = Luminescence Cell-Based Dose Response HTS to Identify Activators of Luciferase Translation or Activity in H4 […] Cells. [Related pubchem assays: 1829 (Project Summary), 1814 (Primary HTS)]; type: functional
Cytochrome P450 2D6 = Cytochrome P450 2D6 (Homo sapiens, UniProt P10635);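 further: CYP2D6 member of a cytochrome P450 panel assay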
H4 = assay: Luminescence Cell-Based Dose Response HTS to Identify Activators of 5'UTR Stem-Loop Driven Prion Protein mRNA Translation in H4 Neuroglioblastoma Cells. [Related pubchem assays: 1829 (Project Summary), 1814 (Primary HTS)]; type: functional; settings: Homo sapiens
Cytochrome P450 2C19 = Cytochrome P450 2C19 (Homo sapiens, UniProt P33261); assay: Cytochrome panel assay with activity outcomes. Panel member name: p450-cyp2c19 Compounds with AC50 equal or less than 10 uM are considered active; type: functional; settings: read-out: AC50
Chain of Cytochrome P450 2C19 (P33261 whole entry): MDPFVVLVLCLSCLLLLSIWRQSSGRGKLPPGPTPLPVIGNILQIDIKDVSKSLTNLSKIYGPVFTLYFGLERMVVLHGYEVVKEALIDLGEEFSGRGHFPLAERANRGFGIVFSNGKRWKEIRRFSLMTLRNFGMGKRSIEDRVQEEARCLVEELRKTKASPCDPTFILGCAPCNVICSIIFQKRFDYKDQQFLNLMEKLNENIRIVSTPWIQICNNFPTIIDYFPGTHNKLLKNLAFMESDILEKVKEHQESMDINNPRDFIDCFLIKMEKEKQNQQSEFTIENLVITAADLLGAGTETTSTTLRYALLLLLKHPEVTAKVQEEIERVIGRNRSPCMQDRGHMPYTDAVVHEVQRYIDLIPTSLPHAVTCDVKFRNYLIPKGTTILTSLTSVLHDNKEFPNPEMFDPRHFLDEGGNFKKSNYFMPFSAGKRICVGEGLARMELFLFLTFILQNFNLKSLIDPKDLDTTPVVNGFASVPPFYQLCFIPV

[12] = Luminescence Cell-Based Dose Response to Identify Activators of Luciferase Translation or Activity in H4-C Neuroglioblastoma Cells. [Related pubchem assays: 1829 (Project Summary), 1814 (Primary HTS)]; type: functional
[13] = Luminescence Cell-Based Dose Confirmation to Identify Activators of 5'UTR Stem-Loop Driven Alpha-Synuclein mRNA Translation in H4 Neuroglioblastoma Cells. [Related pubchem assays: 1829 (Project Summary), 1814 (Primary HTS)]; type: functional
[14] = Luminescence Cell-Based Dose Response to Identify Activators of 5'UTR Stem-Loop Driven Prion Protein mRNA Translation in H4-C Neuroglioblastoma Cells. [Related pubchem assays: 1829 (Project Summary), 1814 (Primary HTS)]; type: functional
[15] = target: 5-hydroxytryptamine receptor 1A (Homo sapiens, UniProt P08908); type: functional
Chain of 5-hydroxytryptamine receptor 1A (P08908 whole entry): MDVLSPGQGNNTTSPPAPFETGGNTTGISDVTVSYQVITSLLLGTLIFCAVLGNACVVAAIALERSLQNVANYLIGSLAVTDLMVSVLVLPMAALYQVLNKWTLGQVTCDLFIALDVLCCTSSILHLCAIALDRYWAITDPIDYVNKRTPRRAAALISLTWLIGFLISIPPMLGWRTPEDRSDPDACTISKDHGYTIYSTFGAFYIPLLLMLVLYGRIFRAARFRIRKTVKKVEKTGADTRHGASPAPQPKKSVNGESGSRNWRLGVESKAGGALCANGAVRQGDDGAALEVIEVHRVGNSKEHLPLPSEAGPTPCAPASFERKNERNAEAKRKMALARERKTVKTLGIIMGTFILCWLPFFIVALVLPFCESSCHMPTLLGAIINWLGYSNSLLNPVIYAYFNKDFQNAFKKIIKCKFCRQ

Protein skinhead-1 = target: T8, Protein skinhead-1 (Caenorhabditis elegans, UniProt P34707); type: functional
T8 sequence (P34707 whole entry): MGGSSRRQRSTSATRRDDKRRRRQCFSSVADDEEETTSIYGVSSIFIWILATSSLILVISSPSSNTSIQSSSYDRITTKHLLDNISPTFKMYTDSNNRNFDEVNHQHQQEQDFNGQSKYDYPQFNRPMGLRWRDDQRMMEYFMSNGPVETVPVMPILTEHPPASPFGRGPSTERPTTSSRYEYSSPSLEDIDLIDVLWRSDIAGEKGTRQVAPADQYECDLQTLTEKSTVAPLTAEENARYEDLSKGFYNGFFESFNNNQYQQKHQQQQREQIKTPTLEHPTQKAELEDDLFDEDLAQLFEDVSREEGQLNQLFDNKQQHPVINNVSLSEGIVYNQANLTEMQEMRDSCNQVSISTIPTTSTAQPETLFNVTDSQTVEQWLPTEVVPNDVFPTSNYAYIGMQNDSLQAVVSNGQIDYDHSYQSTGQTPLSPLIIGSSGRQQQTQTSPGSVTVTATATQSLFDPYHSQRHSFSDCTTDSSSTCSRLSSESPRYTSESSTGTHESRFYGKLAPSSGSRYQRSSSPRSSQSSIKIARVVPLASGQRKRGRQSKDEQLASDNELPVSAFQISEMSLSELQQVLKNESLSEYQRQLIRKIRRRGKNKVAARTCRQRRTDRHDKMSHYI

[16] = target: Induced myeloid leukemia cell differentiation protein Mcl-1 (Homo sapiens, UniProt Q07820); assay: blockers of MCL1 binding to BIM peptide – biochemical, fluorescence polarization, BIM-BH3 peptide, 1536-well, dose response (AID 2217)
Chain of Induced myeloid leukemia cell differentiation protein Mcl-1 (Q07820 whole entry): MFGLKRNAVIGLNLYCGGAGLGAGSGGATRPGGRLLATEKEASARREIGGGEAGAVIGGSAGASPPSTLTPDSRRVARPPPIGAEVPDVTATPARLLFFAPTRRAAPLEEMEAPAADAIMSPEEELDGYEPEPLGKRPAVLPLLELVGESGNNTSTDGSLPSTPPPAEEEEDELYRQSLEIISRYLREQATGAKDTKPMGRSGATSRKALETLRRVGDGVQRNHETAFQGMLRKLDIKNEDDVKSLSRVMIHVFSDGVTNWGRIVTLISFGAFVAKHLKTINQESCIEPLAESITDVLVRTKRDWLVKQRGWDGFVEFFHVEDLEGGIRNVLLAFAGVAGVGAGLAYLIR

Caspase-6 = target: T9, Caspase-6 (Homo sapiens, UniProt P55212); assay: inhibition of CASP6 peptide cleavage – biochemical, VEID-R110 fluorescence, cherry-pick, dose response (AID 720632)
T9 sequence (P55212 whole entry): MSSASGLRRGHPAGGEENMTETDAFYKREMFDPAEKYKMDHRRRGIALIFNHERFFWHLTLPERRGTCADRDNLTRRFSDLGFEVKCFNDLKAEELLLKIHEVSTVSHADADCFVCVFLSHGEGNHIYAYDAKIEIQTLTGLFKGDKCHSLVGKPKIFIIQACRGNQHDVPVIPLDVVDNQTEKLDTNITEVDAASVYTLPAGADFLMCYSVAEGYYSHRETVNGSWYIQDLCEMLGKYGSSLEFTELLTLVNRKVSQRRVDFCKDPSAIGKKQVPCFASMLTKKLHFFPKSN

Bcl-2-like protein 1 = Bcl-2-like protein 1 (Homo sapiens, UniProt Q07817); assay: blockers of BCLXL peptide binding – biochemical, fluorescence polarization, 1536-well, selectivity assay for MCL1 inhibitor project, dose response (AID 2218)
Chain of Bcl-2-like protein 1 (Q07817 whole entry): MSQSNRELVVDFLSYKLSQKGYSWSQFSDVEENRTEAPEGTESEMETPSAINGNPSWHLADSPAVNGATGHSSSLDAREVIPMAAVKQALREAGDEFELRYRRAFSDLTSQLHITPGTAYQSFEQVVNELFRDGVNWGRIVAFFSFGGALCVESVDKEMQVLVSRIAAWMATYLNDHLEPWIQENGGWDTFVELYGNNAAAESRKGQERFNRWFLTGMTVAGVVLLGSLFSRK

Albumin = Albumin (Bos taurus, UniProt P02769); assay: Counterscreen for inhibitors of T-cell receptor (TCR)-CD3 interaction: Fluorescence-based biochemical high throughput dose response assay to identify inhibitors of T-cell receptor (TCR)-CD3 interaction using a TAMRA-labeled BSA probe.; type: functional
Chain of Albumin (P02769 whole entry): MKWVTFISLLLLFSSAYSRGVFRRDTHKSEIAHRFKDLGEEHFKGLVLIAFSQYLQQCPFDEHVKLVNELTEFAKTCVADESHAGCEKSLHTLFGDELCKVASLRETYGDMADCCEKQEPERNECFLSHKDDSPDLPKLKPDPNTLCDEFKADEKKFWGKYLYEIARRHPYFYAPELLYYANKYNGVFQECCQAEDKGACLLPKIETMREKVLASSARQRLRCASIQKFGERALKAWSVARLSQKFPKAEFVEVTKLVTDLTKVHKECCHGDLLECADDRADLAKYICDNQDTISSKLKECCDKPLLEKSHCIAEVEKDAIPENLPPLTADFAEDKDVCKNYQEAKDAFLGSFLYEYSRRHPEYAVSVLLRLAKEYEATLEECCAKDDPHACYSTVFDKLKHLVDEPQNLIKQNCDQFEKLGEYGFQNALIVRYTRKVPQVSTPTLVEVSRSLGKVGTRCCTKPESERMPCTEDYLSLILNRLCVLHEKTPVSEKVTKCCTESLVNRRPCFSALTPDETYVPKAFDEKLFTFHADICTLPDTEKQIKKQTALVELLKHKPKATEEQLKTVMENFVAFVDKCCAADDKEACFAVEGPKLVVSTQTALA

[17] = target: Voltage-gated inwardly rectifying potassium channel KCNH2 (Homo sapiens, UniProt Q12809); assay: concentration-dependent hERG rescue from blockers – cell-based, thallium flux, dose response (AID 2121); type: ADME
Chain of Voltage-gated inwardly rectifying potassium channel KCNH2 (Q12809 whole entry, the tested form may be a part): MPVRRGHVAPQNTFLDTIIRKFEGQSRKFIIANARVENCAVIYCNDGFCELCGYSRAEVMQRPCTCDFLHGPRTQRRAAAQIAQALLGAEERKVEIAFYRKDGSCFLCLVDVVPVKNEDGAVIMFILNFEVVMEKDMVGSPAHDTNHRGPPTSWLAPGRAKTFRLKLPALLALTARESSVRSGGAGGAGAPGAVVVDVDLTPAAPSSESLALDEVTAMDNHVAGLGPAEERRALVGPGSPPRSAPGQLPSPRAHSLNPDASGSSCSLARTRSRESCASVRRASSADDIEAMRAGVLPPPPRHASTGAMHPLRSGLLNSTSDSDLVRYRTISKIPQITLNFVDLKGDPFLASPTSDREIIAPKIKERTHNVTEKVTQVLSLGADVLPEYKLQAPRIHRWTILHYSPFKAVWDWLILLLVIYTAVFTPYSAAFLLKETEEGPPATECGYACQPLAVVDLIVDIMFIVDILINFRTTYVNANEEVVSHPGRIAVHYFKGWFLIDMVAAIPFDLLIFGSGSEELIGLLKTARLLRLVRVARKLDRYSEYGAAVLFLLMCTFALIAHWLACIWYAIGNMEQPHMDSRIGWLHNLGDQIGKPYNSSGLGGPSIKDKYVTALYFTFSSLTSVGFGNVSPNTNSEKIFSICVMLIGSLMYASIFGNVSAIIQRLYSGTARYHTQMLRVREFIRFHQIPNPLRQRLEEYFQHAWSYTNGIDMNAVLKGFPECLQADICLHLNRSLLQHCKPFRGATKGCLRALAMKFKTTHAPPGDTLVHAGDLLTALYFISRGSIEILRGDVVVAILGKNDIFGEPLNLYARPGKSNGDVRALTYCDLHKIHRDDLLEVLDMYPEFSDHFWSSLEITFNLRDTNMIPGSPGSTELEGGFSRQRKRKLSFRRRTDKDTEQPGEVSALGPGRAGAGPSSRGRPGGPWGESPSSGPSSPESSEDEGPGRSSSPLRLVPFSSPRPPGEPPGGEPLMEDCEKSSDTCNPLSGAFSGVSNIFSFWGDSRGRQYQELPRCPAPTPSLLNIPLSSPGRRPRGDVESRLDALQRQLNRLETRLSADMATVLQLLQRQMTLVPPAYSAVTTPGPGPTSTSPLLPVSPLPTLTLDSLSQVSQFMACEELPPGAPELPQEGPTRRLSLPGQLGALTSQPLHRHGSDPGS

[18] = target: T10, Polyadenylate-binding protein 1 (Homo sapiens, UniProt P11940); assay: MLLE domain peptide-binding blockers, IC50 – biochemical, fluorescence polarization, FITC-PAM2 peptide, dose response (AID 602259); type: functional; settings: read-out: IC50_Mean
T10 sequence (P11940 whole entry, the tested form may be a part): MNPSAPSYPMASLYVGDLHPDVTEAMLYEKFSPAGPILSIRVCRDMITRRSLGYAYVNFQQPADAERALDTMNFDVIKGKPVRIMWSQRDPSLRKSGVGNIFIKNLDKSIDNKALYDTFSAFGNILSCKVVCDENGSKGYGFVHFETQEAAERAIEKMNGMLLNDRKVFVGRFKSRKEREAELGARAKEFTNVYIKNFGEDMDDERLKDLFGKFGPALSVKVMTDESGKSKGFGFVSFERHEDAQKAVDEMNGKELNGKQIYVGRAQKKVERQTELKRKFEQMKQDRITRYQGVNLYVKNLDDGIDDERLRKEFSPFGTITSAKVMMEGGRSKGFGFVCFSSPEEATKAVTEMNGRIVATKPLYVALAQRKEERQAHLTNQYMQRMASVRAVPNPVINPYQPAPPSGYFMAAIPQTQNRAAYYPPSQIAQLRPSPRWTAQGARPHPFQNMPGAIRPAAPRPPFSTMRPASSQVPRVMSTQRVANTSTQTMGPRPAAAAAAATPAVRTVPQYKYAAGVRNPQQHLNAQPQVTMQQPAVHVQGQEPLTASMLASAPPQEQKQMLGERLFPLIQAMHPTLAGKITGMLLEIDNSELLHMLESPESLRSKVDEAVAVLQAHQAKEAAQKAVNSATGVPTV

[19] = target: T10, Polyadenylate-binding protein 1; assay: MLLE binding blockers, Cy5 peptide tracer – biochemical, fluorescence polarization, Cy5-PAM2 peptide, secondary, miRNA deadenylation inhibitor project, dose response (AID 602260); type: functional; settings: read-out: IC50_Mean
[20] = Luminescence Cell-Based Dose Confirmation HTS to Identify Inhibitors of Polyadenylation.; type: functional

O=C(c1ccco1)[C@@H]1[C@@H]2C(=O)N(c3ccccc3)C(=O)[C@@H]2C2c3ccccc3C=CN21 (stereo partly drawn)
IC50 [1]: 23.4 µM (active)
EC50 [2]: 39.1 µM (active)
EC50 [3]: 34.9 µM (active)

Cc1ccc(-c2cc(C(=O)NCc3ccco3)c3ccccc3n2)o1
IC50 (Estrogen receptor beta [4]): > 50 µM (not active)
EC50 [5]: 36.8 µM (active)
IC50 (Estrogen receptor beta [6]): 3.37 µM (active)
IC50 [7]: 4.39 µM (active)
EC50 [8]: > 112 µM (not active)
IC50 (Estrogen receptor): 6.84 µM (active)

Cc1cc(NC(=O)c2ccc3c(c2)C(=O)N(Cc2cccnc2)C3=O)no1
IC50 [9]: > 100 µM (not active)
IC50 [10]: 13.7 µM (not active)

C/C(=N\OC(=O)c1ccccc1)c1cc(-c2ccc(Cl)cc2)no1
EC50 [11]: < 0.1 µM (active)
AC50 (Cytochrome P450 2D6): inconclusive
EC50 (H4): 68.1 µM (active)
AC50 (Cytochrome P450 2C19): 22.4 µM (inconclusive)
EC50 [12]: 1.04 µM (active)
EC50 [13]: 4.74 µM (active)
EC50 [14]: 1.28 µM (active)

O=C(O)C1CCCCC1C(=O)NCCc1c[nH]c2ccccc12 (stereo not drawn)
EC50 [15]: 34.8 µM (not active)
IC50 (Protein skinhead-1): > 100 µM (inactive)

Cc1ccc(OCC(=O)c2c(N)n(C)c(=O)n(C)c2=O)c([N+](=O)[O-])n1
IC50 [16]: 8.63 µM (active)
AC50 (Caspase-6): 18.9 µM (active)
IC50 (Bcl-2-like protein 1): 21.3 µM (not active)
IC50 (Albumin): > 94.1 µM (inactive)

Cc1ccc(C)c(NC(=S)NC(=O)c2cncc(Br)c2)c1
EC50 [17]: 4.77 µM (active)
IC50 [18]: > 66 µM (inactive)
IC50 [19]: > 66 µM (inactive)

C(=Nc1ncnc2sccc12)NOCc1ccccc1
EC50 [20]: > 120 µM (not active)
